{"source": "patent US20050234065A1", "about": "“Dipeptidyl peptidase-IV inhibitors” (Pfizer Inc, priority 2004, published 2005)", "data": [{"biological_target": "T1, DPP-IV (Homo sapiens, UniProt P27487)", "T1 construct": "purchased Enzyme Systems Products SPE-01", "T1 sequence (P27487 whole entry, species assumed)": "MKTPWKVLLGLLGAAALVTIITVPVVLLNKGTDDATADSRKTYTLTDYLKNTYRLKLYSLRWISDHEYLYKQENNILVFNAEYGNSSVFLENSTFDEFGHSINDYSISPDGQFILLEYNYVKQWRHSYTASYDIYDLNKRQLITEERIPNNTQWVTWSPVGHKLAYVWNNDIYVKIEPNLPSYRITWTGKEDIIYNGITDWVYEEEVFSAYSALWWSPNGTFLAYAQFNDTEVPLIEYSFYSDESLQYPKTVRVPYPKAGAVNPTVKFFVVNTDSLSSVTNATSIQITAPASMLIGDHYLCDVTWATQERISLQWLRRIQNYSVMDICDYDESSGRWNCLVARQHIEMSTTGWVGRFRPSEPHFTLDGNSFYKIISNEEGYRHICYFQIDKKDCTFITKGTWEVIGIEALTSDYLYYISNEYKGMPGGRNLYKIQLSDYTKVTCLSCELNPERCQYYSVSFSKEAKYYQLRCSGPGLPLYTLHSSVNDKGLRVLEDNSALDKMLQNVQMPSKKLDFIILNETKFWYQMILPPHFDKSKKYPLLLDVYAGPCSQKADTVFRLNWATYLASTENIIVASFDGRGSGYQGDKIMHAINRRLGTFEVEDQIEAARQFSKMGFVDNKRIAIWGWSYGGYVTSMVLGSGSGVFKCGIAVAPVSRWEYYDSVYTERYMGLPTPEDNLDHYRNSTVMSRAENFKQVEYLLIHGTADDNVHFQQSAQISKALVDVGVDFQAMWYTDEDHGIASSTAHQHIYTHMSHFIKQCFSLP", "assay": "In vitro assay for dipeptidyl peptidase inhibition", "format": "biochemical", "settings": "hydrochloride salts; Gly-Pro-4-methoxy B naphthylamide substrate; overnight at 37° C.; read-out: IC50 (concentration of test compound required for 50% inhibition)", "method": "(§1) 150 μL of an enzyme-substrate solution was pipetted into microtiter wells of a polystyrene 96-well plate, and maintained at 4° C. The enzyme-substrate solution comprised 50 μM Gly-Pro-4-methoxy B naphthylamide HCl in 50 mM Tris assay buffer pH 7.3 containing 0.1M sodium chloride, 0.1% (v/v) Triton and 50 μU/mL DPP-IV (Enzyme Systems Products Cat#SPE-01, DPP-IV 5 mU/mL stock). 5 μL/well of compounds of Formula (I) were added, bringing the final compound of Formula (I) concentrations to 3 μM-10 nM per well.\n(§2) Controls. Enzyme was omitted from four (4) wells, as a reagent blank. 5 μL of 3 mM Diprotin A was added to four wells as a positive quality control, providing a final Diprotin A concentration of 100 μM. To measure total enzyme activity (i.e. a negative control), without the influence of any compounds of Formula (I), 5 μL of distilled water was added to four wells.\n(§3) The entire assay was incubated overnight (about 14-18 hours) at 37° C.", "units": {"IC50": "µM"}, "values": [{"smiles": "N[C@H](C(=O)N1CCC(F)(F)C1)[C@H]1CC[C@H](NC(=O)[C@@H]2CNC(=O)N2C(=O)OCc2ccccc2)CC1", "note": "[Example 29, (5S)-5-{trans-4-[(1S)-1-amino-2-(3,3-difluoro-pyrrolidin-1-yl)-2-oxo-ethyl]-cyclohexylcarbamoyl}-2-oxo-imidazolidine-1-carboxylic acid benzyl ester]", "IC50": "≤ 0.1"}, {"smiles": "N[C@H](C(=O)N1CCCC1)[C@H]1CC[C@@H](NC(=O)CCC2C(=O)OCN2C(=O)OCc2ccccc2)CC1", "note": "(stereo in doubt) [Example 4, (4S)-4-{2-[cis-4-((1S)-1-amino-2-oxo-2-pyrrolidin-1-yl-ethyl)-cyclohexylcarbamoyl]-ethyl}-5-oxo-oxazolidine-3-carboxylic acid benzyl ester]", "IC50": "0.1 to 0.5"}, {"smiles": "N[C@H](C(=O)N1CCSC1)[C@H]1CC[C@H](N2Cc3ncccc3C2=O)CC1", "note": "[Example 43, 6-[trans-4-((1S)-1-amino-2-oxo-2-thiazolidin-3-yl-ethyl)-cyclohexyl]-6,7-dihydro-pyrrolo[3,4-b]pyridin-5-one]", "IC50": "≤ 0.1"}, {"smiles": "N[C@H](C(=O)N1CCCC1)[C@H]1CC[C@@H](NC(=O)[C@H]2COCN2C(=O)OCc2ccccc2)CC1", "note": "[Example 5, (4R)-4-[cis-4-((1S)-1-amino-2-oxo-2-pyrrolidin-1-yl-ethyl)-cyclohexylcarbamoyl]-oxazolidine-3-carboxylic acid benzyl ester]", "IC50": "0.1 to 0.5"}, {"smiles": "N[C@H](C(=O)N1CCCC1)[C@H]1CC[C@@H](NC(=O)CNC(=O)OCc2ccccc2)CC1", "note": "[Example 2, {[cis-4-((1S)-1-amino-2-oxo-2-pyrrolidin-1-yl-ethyl)-cyclohexylcarbamoyl]-methyl}-carbamic acid benzyl ester]", "IC50": "> 0.5"}, {"smiles": "N#C[C@@H]1CCCN1C(=O)[C@@H](N)[C@H]1CC[C@H](N2Cc3ncccc3C2=O)CC1", "note": "[Example 44, 1-{(1S)-amino-[trans-4-(5-oxo-5,7-dihydro-pyrrolo[3,4-b]pyridin-6-yl)-cyclohexyl]-acetyl)-(2S)-pyrrolidine-2-carbonitrile]", "IC50": "≤ 0.1"}, {"smiles": "N[C@H](C(=O)N1CCCC1)[C@H]1CC[C@H](NC(=O)CN2C(=O)c3ccccc3/C2=C\\c2ccccc2)CC1", "note": "[Example 20, N-[trans-4-(1-(1S)-amino-2-oxo-2-pyrrolidin-1-yl-ethyl)-cyclohexyl]-2-(1-benzylidene-3-oxo-1,3-dihydro-isoindol-2-yl)-acetamide]", "IC50": "≤ 0.1"}, {"smiles": "N[C@H](C(=O)N1CCCC1)[C@H]1CC[C@H](N2Cc3ncccc3C2=O)CC1", "note": "[Example 42, 6-[trans-4-((1S)-1-amino-2-oxo-2-pyrrolidin-1-yl-ethyl)-cyclohexyl]-6,7-dihydro-pyrrolo[3,4-b]pyridin-5-one]", "IC50": "≤ 0.1"}, {"smiles": "Nc1nccnc1C(=O)N[C@H]1CC[C@H]([C@H](N)C(=O)N2CCC(F)(F)C2)CC1", "note": "[Example 32, (S)-3-amino-pyrazine-2-carboxylic acid {trans-4-[1-amino-2-(3,3-difluoro-pyrrolidin-1-yl)-2-oxo-ethyl]-cyclohexyl}-amide]", "IC50": "≤ 0.1"}, {"smiles": "N[C@H](C(=O)N1CCCC1)[C@H]1CC[C@H](NC(=O)[C@@H]2CCC(=O)N2C(=O)OCc2ccccc2)CC1", "note": "[Example 14, (2S)-2-[trans-4-(1-(1S)-amino-2-oxo-2-pyrrolidin-1-yl-ethyl)-cyclohexylcarbamoyl]-5-oxo-pyrrolidine-1-carboxylic acid benzyl ester]", "IC50": "0.1 to 0.5"}, {"smiles": "N[C@H](C(=O)N1CCCC1)[C@H]1CC[C@@H](NC(=O)[C@@H]2CNC(=O)N2C(=O)OCc2ccccc2)CC1", "note": "[Example 7, (5S)-5-[cis-4-((1S)-1-amino-2-oxo-2-pyrrolidin-1-yl-ethyl)-cyclohexylcarbamoyl]-2-oxo-imidazolidine-1-carboxylic acid benzyl ester]", "IC50": "> 0.5"}, {"smiles": "N#C[C@@H]1CCCN1C(=O)[C@@H](N)[C@H]1CC[C@H](NC(=O)c2cc3sccc3cn2)CC1", "note": "[Example 57, N-(trans-4-{(1S)-1-amino-2-[(2S)-2-cyanopyrrolidin-1-yl]-2-oxoethyl}cyclohexyl)thieno[3,2-c]pyridine-6-carboxamide]", "IC50": "≤ 0.1"}, {"smiles": "N#C[C@@H]1CCCN1C(=O)[C@@H](N)[C@H]1CC[C@H](NC(=O)c2cc3occc3cn2)CC1", "note": "[Example 61, N-(trans-4-{(1S)-1-amino-2-[(2S)-2-cyanopyrrolidin-1-yl]-2-oxoethyl}cyclohexyl)furo[3,2-c]pyridine-6-carboxamide]", "IC50": "≤ 0.1"}, {"smiles": "N#C[C@@H]1CCCN1C(=O)[C@@H](N)[C@H]1CC[C@H](NC(=O)c2nccnc2N)CC1", "note": "[Example 36, 3-amino-pyrazine-2-carboxylic acid {trans-4-[(1S)-1-amino-2-((2S)-2-cyano-pyrrolidin-1-yl)-2-oxo-ethyl]-cyclohexyl}-amide]", "IC50": "≤ 0.1"}, {"smiles": "N[C@H](C(=O)N1CCCC1)[C@H]1CC[C@H](N2Cc3nccnc3C2=O)CC1", "note": "[Example 46, 6-[trans-4-((1S)-1-amino-2-oxo-2-pyrrolidin-1-yl-ethyl)-cyclohexyl]-6,7-dihydro-pyrrolo[3,4-b]pyrazin-5-one]", "IC50": "≤ 0.1"}, {"smiles": "CN(C(=O)OCc1ccccc1)C(C)(C)C(=O)N[C@H]1CC[C@H]([C@H](N)C(=O)N2CCCC2)CC1", "note": "[Example 17, (S)-{1-[trans-4-(1-amino-2-oxo-2-pyrrolidin-1-yl-ethyl)-cyclohexylcarbamoyl]-1-methyl-ethyl)-methyl-carbamic acid benzyl ester]", "IC50": "0.1 to 0.5"}, {"smiles": "N[C@H](C(=O)N1CCCC1)[C@H]1CC[C@H](N2C(=O)c3nccnc3C2=O)CC1", "note": "[Example 22, 6-[trans-4-((1S)-1-amino-2-oxo-2-pyrrolidin-1-yl-ethyl)-cyclohexyl]-pyrrolo[3,4-b]pyrazine-5,7-dione]", "IC50": "≤ 0.1"}, {"smiles": "N[C@H](C(=O)N1CCCC1)[C@H]1CC[C@H](NC(=O)[C@H]2COCN2C(=O)OCc2ccccc2)CC1", "note": "[Example 8, (4R)-4-[trans-4-((1S)-1-amino-2-oxo-2-pyrrolidin-1-yl-ethyl)-cyclohexylcarbamoyl]-oxazolidine-3-carboxylic acid benzyl ester]", "IC50": "0.1 to 0.5"}, {"smiles": "NC(C(=O)N1CCCC1)C1CCC(NC(=O)C2CC(O)CN2)CC1", "note": "[Example 21, (1S,4R)-4-hydroxy-pyrrolidine-2-carboxylic acid [trans-4-((1S)-1-amino-2-oxo-2-pyrrolidin-1-yl-ethyl)-cyclohexyl]-amide]", "IC50": "0.1 to 0.5"}, {"smiles": "Cc1nn(C)c(C(=O)N[C@H]2CC[C@H]([C@H](N)C(=O)N3CCCC3)CC2)c1N", "note": "[Example 48, (S)-4-amino-2,5-dimethyl-2H-pyrazole-3-carboxylic acid [trans-4-(1-amino-2-oxo-2-pyrrolidin-1-yl-ethyl)-cyclohexyl]-amide]", "IC50": "≤ 0.1"}, {"smiles": "NC(=O)c1nccnc1C(=O)N[C@H]1CC[C@H]([C@H](N)C(=O)N2CCCC2)CC1", "note": "[Example 19, (S)-pyrazine-2,3-dicarboxylic acid amide [trans-4-(1-amino-2-oxo-2-pyrrolidin-1-yl-ethyl)-cyclohexyl]-amide]", "IC50": "≤ 0.1"}, {"smiles": "N[C@H](C(=O)N1CCCC1)[C@H]1CC[C@@H](NC(=O)[C@@H]2COCN2C(=O)OCc2ccccc2)CC1", "note": "[Example 6, (4S)-4-[cis-4-((1S)-1-amino-2-oxo-2-pyrrolidin-1-yl-ethyl)-cyclohexylcarbamoyl]-oxazolidine-3-carboxylic acid benzyl ester]", "IC50": "> 0.5"}]}, {"biological_target": "T1, DPP-IV", "assay": "In vitro assay for dipeptidyl peptidase inhibition", "format": "biochemical", "settings": "hydrochloride salts; Gly-Pro-4-methoxy B naphthylamide substrate; overnight at 37° C.; read-out: IC50 (concentration of test compound required for 50% inhibition), bound given in μM", "method": "as §1, §2, §3", "units": {"IC50": "µM"}, "values": [{"smiles": "N[C@H](C(=O)N1CCCC1)[C@H]1CC[C@@H](NC(=O)[C@@H]2CNC(=O)N2C(=O)OCc2ccccc2)CC1", "note": "[Example 7, (5S)-5-[cis-4-((1S)-1-amino-2-oxo-2-pyrrolidin-1-yl-ethyl)-cyclohexylcarbamoyl]-2-oxo-imidazolidine-1-carboxylic acid benzyl ester]", "IC50": "≤ 1"}, {"smiles": "N[C@H](C(=O)N1CCCC1)[C@H]1CC[C@@H](NC(=O)[C@@H]2COCN2C(=O)OCc2ccccc2)CC1", "note": "[Example 6, (4S)-4-[cis-4-((1S)-1-amino-2-oxo-2-pyrrolidin-1-yl-ethyl)-cyclohexylcarbamoyl]-oxazolidine-3-carboxylic acid benzyl ester]", "IC50": "≤ 1"}]}]}
